{
  "source": "patent US20110130425A1",
  "about": "“Use of H3 Histaminergic Agonists for the Treatment of Addiction to Drugs of Abuse” (priority 2009, published 2011)",
  "key": {"[1]": {"tested_on": "morphine/heroin seeking behaviour", "assay": "Extinction and reinstatement of morphine/heroin seeking, mouse intravenous operant self-administration", "assay_type": "in vivo, C57B16/J mice", "conditions": "L-histidine 1 g/kg or 2 g/kg; mice", "protocol": "L-Histidine solution: L-Histidine (Sigma, H-8000) at a 155.15 g/mol concentration in 0.34 M phosphoric acid is prepared as follows. 1.5 g L-histidine are dissolved in 12 ml of 0.34 M phosphoric acid to obtain a 0.8 M solution of L-histidine at approximately pH 6. pH is verified, and 0.1 g of NaCl added to a final concentration of 0.9%. Finally, the L-histidine solution is sterilized by filtration.\nAnimals: Male C57B16/J mice (Charles River, France) are housed individually in controlled laboratory conditions with the temperature maintained at 21±1° C., humidity at 55±10%, and light reversal cycle (light on at 20.00 h, light off at 08.00 h). Mice are tested during the dark phase of a light reversal cycle. Behavioural tests and animal care are conducted in accordance with the standard ethical guidelines (National Institutes of Health 1995; European Communities Directive 86/609 EEC) and the protocols are approved by the local ethical committee (CEEA-PRBB).\nApparatus: The self-administration experiments are conducted in mouse operant chambers (Model ENV-307A-CT, Medical Associates, Georgia, VT, USA). The experimental chambers are equipped with a house light, ventilator fan, drug infusion pump, liquid swivel with counterbalanced arm, and two manipulanda with cue lights that are located on either side of a food dipper. The manipulanda are holes (1.2 cm diameter).\nThe chambers are housed in sound- and light-attenuated boxes equipped with fans to provide ventilation and white noise. […]\nThe catheter tubing is inserted 1.3 cm into the right jugular vein and anchored with suture. […] The patency of intravenous catheters is evaluated periodically (approximately every 6 days). Patency is also evaluated whenever drug self-administration behavior appears to deviate dramatically from that observed previously. […]\nL-Histidine dosage: The first L-histidine dose is 1 g/kg. […] Dosage for other H3 histaminergic agonists or H3 histaminergic agonist precursors is determined considering the pharmacokinetic and toxicological characteristics of the compound. […]"}, "alcohol relapse behavior": {"tested_on": "alcohol relapse behavior", "assay": "Alcohol Deprivation Effect (ADE) paradigm", "assay_type": "in vivo, rat", "conditions": "L-histidine; rats", "protocol": "The effects of a H3 histaminergic ligand, such as L-histidine, are tested in our well-established model of relapse-like drinking behavior.\nAlcohol Deprivation Effect (ADE) paradigm: All rats are given continuous access to tap water and to 5%, 10% and 20% (v/v) ethanol solutions in their home cages. Spillage and evaporation is minimized by the use of self-made bottles. All drinking solutions are renewed weekly and the positions of the four bottles are changed to avoid location preferences. After eight weeks of continuous access, ethanol solutions are repeatedly withdrawn for 3-21 days (deprivation phases) every four weeks until the rats become alcohol-dependent (as measured by a sucrose and quinine tests). The effects of a H3 histaminergic ligand are then tested on the expression of the alcohol deprivation effect (=relapse behavior). A second ADE study is initiated 3 months later in order to study the persistence of treatment efficacy.\nPast pharmacological studies in home cage drinking models were hampered by the fact that measurements were performed at 24 hour intervals. Thus the exact temporal profile of drug treatment could not be assessed under home cage drinking conditions and sometimes pharmacological effects became masked by the use of measurements every 24 hours. This problem has now been solved in our lab by the use of a fully-automated drinkometer system. […]"}},
  "data": [
    {"smiles": "N[C@@H](Cc1c[nH]cn1)C(=O)O", "note": "[L-histidine]", "values": [
      {"measurement": "cue-induced reinstatement of morphine/heroine seeking", "setting": "[1]", "result": "decreases cue-induced reinstatement"},
      {"measurement": "number of sessions required to achieve extinction criteria (morphine/heroin)", "setting": "[1]", "result": "shortens the number of sessions"},
      {"measurement": "responding during the first extinction session (morphine/heroin)", "setting": "[1]", "result": "decreases or delays responding"},
      {"measurement": "relapse into alcohol drinking after alcohol deprivation (alcohol deprivation effect)", "setting": "alcohol relapse behavior", "result": "decreases relapse"}
    ]}
  ]
}
